Patent US6479233B1, “Electrogenerated chemiluminescence labels for analysis and/or referencing” (IGEN International, Inc., priority 1994, dated 2002)
Where two headings read alike, the source gives them in different places. Each block holds one compound with its values, some of them ahead of it.

Tests used:
[1] = Fluorescence spectra (CCD camera, 366 nm UV excitation); assay type: physicochemical; details: for fluorescence maximum: pH 8.5 sodium phosphate buffer
Description: (§1) Fluorescence and ECL spectra were recorded using a charge-coupled device (CCD) camera and spectrometer (1 mm entrance slit) interfaced to a Dell System 200 personal computer (Austin, Tex.) as previously described. The same procedures (spectral calibration etc.) were followed except that different pulse sequences were used and the CCD detector was maintained at −110° C. for the TPrA/THCOOH and TPrA/DPAS experiments and −100° C. for the S2O8^2−/DPAS experiments. Excitation for the fluorescence spectra was achieved by holding a longwave (366 nm) UV lamp (UVP, Inc., San Gabriel, Calif.; model UVGL-25; sold by Fisher Scientific, Pittsburgh, Pa.) next to the cell and at right angles to the entrance slit of the spectrometer.

[2] = ECL spectra (CCD camera and spectrometer); assay type: physicochemical; design: wavelength centered emission: unit not given here; details: for ECL maximum: pH 8.5 sodium phosphate buffer
Description: as §1
The DPAS/TPrA ECL spectrum and emission vs. potential scans utilized a 6×9 mm Pt gauze flag (52 mesh gauze; Aldrich) working electrode, an AgQRE and a round (9 mm diameter, 0.5 mm thick) Au foil counter electrode. The 2-THCOOH ECL spectrum also utilized this arrangement. The gauze working electrode was cleaned prior to each experiment by immersion in concentrated nitric acid followed by rinsing in distilled water and heating in a bunsen burner flame.
The DPAS/S2O8^2− ECL spectrum and emission vs. potential scan utilized a 2.0 mm diameter Pt disk working electrode sealed in glass in combination with a Pt wire counter electrode and AgQRE.

[3] = Cyclic voltammetry / standard potentials; assay type: physicochemical
Description: Cyclic voltammetry without photon detection was obtained by using either a BAS 100A Electrochemical Analyzer (Bioanalytical Systems, West Lafayette, Ind.) or a Princeton Applied Research (PAR) model 173/175 potentiostat/universal programmer (Princeton, N.J.) and Omnigraphic 20000 X-Y recorder (Bausch and Lomb-Houston Instrument Division, Austin, Tex.). Cyclic voltammograms with simultaneous photon detection were recorded using the PAR 173/175 in conjunction with a Hamamatsu C1230 photon counter (Bridgewater, N.J.) equipped with a Hamamatsu R928-P photomultiplier tube. The photomultiplier tube was housed in a water jacketed Products For Research, Inc. model TE308TSRF refrigerated chamber maintained at −10° C. Primary cooling of the water jacket to 10° C. was accomplished using an MGW Lauda model RMS6 refrigeration unit (sold by Brinkmann Instruments Co., Westbury, N.Y.). For plots of ECL intensity vs. potential, the output from the photon counter was fed into the Y-axis of the X-Y recorder during potential scans.
Except where noted, all electrochemical and ECL experiments utilized a conventional 3-electrode cell configuration. Pt disk working electrodes were polished on a felt pad (Buehler, Ltd., Lake Bluff, Ill.) before each experiment run with 0.05 μm alumina (Buehler, Ltd.) suspended in water.
For cyclic voltammetry runs without photon detection, the CPZ embodiment utilized a highly-oriented pyrolytic graphite (HOPG; Union Carbide, Cleveland, Ohio) working electrode (6 mm dia. disk with freshly exposed material for each experiment), Pt wire counter electrode and Ag quasi-reference electrode (AgQRE) in a recently describe configuration. See Xu, X.; Bard, A. J. Langmuir, 1994, 10, 2409. Similar runs for all other compounds utilized a 1.5 mm diameter Pt disk working electrode sealed in glass in combination with a Pt wire counter electrode and AgQRE.
Nonaqueous potential referencing to ferrocene was accomplished by adding the standard directly to the solutions. […]

[4] = Maximum solubility of aqueous DPAS in sodium phosphate buffer; assay type: physicochemical; details: 0.15 M sodium phosphate buffer (pH 7.5)
Excerpt: The maximum solubility of aqueous DPAS in 0.15 M sodium phosphate buffer (pH 7.5) is approximately 1×10^−5 M. At this low concentration, no anodic current can be observed for DPAS above the background oxidation of water as shown in FIG. 1. However, if 1×10^−5 M DPAS is oxidized in the presence of 0.15 M TPrA, an emission that coincides with an oxidation wave occurs that is superimposed on the TPrA oxidation and background oxidation of water as shown in FIGS. 2a-2b. The fact that an oxidation current is observed for 1×10^−5 M DPAS only in the presence of TPrA implicates a catalytic current enhancement due to the regeneration of DPAS via reduction of DPAS^+ by TPrA or an intermediate. For this catalysis, the cyclic sequence of reactions is analogous to equation schemes (5), (6a), (7), (8) or (10) and (11), and (9) above where Ru(bpy)3^3+/2+/+ is replaced by DPAS^+/0/− respectively, XY^z is TPrA, X^x is Pr2NCH.Et and Y^y is H^+. Despite the low DPAS concentration, 1×10^−5 M, this emission is visibly blue when viewed in a dark room and no emission is observed in the absence of either TPrA or DPAS.

[5] = design: peak emission: unit not given here; details: cited from earlier work; for fluorescence efficiency φF: aqueous media
[6] = non-aqueous ion annihilation scheme; cited from earlier work

SMILES: [Ru+2].c1ccc(-c2ccccn2)nc1.c1ccc(-c2ccccn2)nc1.c1ccc(-c2ccccn2)nc1 [Ru(bpy)3^2+, tris (2,2-bipyridine)ruthenium(II), reference compound]
- fluorescence efficiency φF [5]: about 0.05

SMILES: c1ccc2c(c1)Sc1ccccc1S2 [thianthrene, reference compound]
- emission maximum of fluorescence ([5]; in MeCN): 434 nm
- ECL peak intensity wavelength [6]: 434 nm

Continued, in another order:

- fluorescence maximum ([1]; 0.15 M TPrA): 505 nm
- ECL maximum ([2]; 0.15 M TPrA): 570 nm
SMILES: O=C(O)c1cccc2c1Sc1ccccc1S2 [1-THCOOH, 1-thianthrenecarboxylic acid]

- fluorescence maximum ([1]; 0.15 M TPrA): 480 nm
- ECL maximum ([2]; 0.15 M TPrA): 570 nm
- oxidation potential ([3]; aqueous solution, pH 8.5 sodium phosphate buffer, Pt electrode, vs SCE): ~+1.0 V
SMILES: O=C(O)c1ccc2c(c1)Sc1ccccc1S2 [2-THCOOH, 2-thianthrenecarboxylic acid]

- solubility [4]: ~10 µM
- singlet excited state energy Es [1]: 2.9 eV
- fluorescence peak intensity wavelength ([1]; 1.1 mM DPAS, 25 mM (NH4)2S2O8, MeCN-water 1:1): 430 nm
- fluorescence peak intensity wavelength ([1]; 1×10^−5 M DPAS, 0.15 M TPrA, pH 7.5 sodium phosphate buffer): 430 nm
- ECL peak intensity wavelength ([2]; 1.1 mM DPAS, 25 mM (NH4)2S2O8, MeCN-water 1:1, reduction at −2.2 V vs SCE): 430 nm
- ECL peak intensity wavelength ([2]; 1×10^−5 M DPAS, 0.15 M TPrA, pH 7.5 sodium phosphate buffer, oxidation): 430 nm
- wavelength centered emission ([2]; emission spectra of FIG. 19): 430
- E° of DPAS+/DPAS ([3]; oxidation): ≈ +1.3 V vs SCE
- E° of DPAS/DPAS− ([3]; reduction): ≈ −1.9 V vs SCE
SMILES: O=S(=O)([O-])c1ccc2c(-c3ccccc3)c3ccccc3c(-c3ccccc3)c2c1.[Na+] [DPAS, sodium 9,10-diphenylanthracene-2-sulfonate]
- fluorescence efficiency φF [5]: 0.87
- peak emission ([5]; fluorescence): 428
